Test system: PRPP levels of isolated splenocytes
Assay: PRPP levels of isolated splenocytes incubated in vitro with UDPG or G-6-P
Type: cell-based, mouse
Details: for PRPP levels: soluble fraction of homogenates
Procedure: Isolation of splenocytes and hepatic cells: The organs were gently teased apart with forceps over a fine tea strainer into PBS or minimum essential culture medium (MEM) containing 0.1M potassium phosphate buffer pH 7.4 with and without added effectors. […] The supernatant solutions were assayed for PRPP.
The vials were shaken vigorously and their radioactivity determined.

## O=P(O)(O)OC[C@H]1OC(O)[C@H](O)[C@@H](O)[C@@H]1O (some centres unmarked) [G-6-P, Glucose-6-phosphate]
1.1 mM in MEM
  PRPP levels: 969 pmoles/mg protein
5.5 mM in MEM
  PRPP levels: 1418 pmoles/mg protein
11 mM in MEM
  PRPP levels: 1510 pmoles/mg protein
22 mM in MEM
  PRPP levels: 1998 pmoles/mg protein
Isolated splenocytes, in words
  effect on intracellular PRPP level of splenocytes as a function of concentration: not evident below a concentration of 5.5 mM
